Laboratory results: patent publication US4536400A, “Phosphonoformic acid esters” (priority 1977, dated 1985)
Several values for one entry are separate records, joined by “and”; a condition that tells them apart may be missing. Equal values may be shown once. Read-outs that look alike come from different tables or passages of the source.

Tests used:
[1] = Preliminary acute toxicity test in mice; format: in vivo; conditions: groups of two male NMRI mice
Experimental: A preliminary acute toxicity test was carried out in mice. Groups of two male mice of the NMRI strain weighing 20-21 g received the test compound in doses of 62.5-500 mg/kg ip. The compound was given as a solution in 0.9% NaCl. The number of animals dead 24 hours after injection was as follows.

[2] = Acid stability test in 0.1 N HCl (t.l.c. estimate of decomposition products); format: physicochemical; conditions: incubated in 0.1 N HCl at 37° C. for 2 hours; 100 μg compound applied
Experimental: The acid stability was investigated by dissolving 5 mg of each compound in 1 ml of 0.1 N HCl in a test tube. For use as references 0.2 ml of each solution was withdrawn, immediately treated with 0.2 ml of a 10% aqueous solution of NaHCO3 and frozen. The remaining 0.8 ml of each solution was incubated at 37° C. for 2 hours. After incubation, 0.8 ml of a 10% aqueous solution of NaHCO3 was added to each solution and the solutions were frozen. The incubated compounds and the reference compounds were lyophilized to dryness and redissolved in distilled H2 O, 0.2 ml and 1.0 ml respectively, for each reference solution and incubated solution. The solutions were applied to silica gel (Merck PF254, 20×20 cm) and polyethylene imine (Macherey-Nagel PEI, 20×20 cm) thin layer plates. A total of 20 μl of the reference solutions (100 μg compound) and 25 μl of the incubated solutions ([…]) were applied. To each plate was also added, as references, solutions of phosphorous acid (H2 HPO3) (5 and 20 μg) and of trisodiumphosphonoformate (5 and 20 μg). (Decomposition of phosphonoformic acid at low pH produces phosphorous acid).
The silica gel plates were prepared in duplicate and eluted with a solution composed of methanol--10% aq ammonia--trichloroacetic acid--water (50--15--5--3, v/v) and the polyethylene imine plates were eluted with a 1M aq lithium chloride solution. […]

[3] = test system: cutaneous herpes simplex type 1 infections; assay: Inhibition of cutaneous herpes on guinea pigs; format: in vivo, guinea pig; conditions: scale 0 to 3
Source text: The effect of cutaneous herpes simplex type 1 infections have been measured in a guinea pig model described by Hubler et al. J. Invest Dermatol 69 (1974) 92. […] The appearance of an infected treated area and a similar infected untreated (only isopropanol-glycerol-water) area was scored daily on a scale from 0 to 3. The total effect is judged from the score at day 5.

[4] = test system: influenza (WSN Wilson Smith Neurotropic type A); assay: Inhibition of influenza WSN plaque on MDCK monolayers; format: cell-based, influenza virus
herpes simplex type 1 = assay: Plaque reduction assay for herpes simplex type 1 on GMK monolayers; format: cell-based; conditions: for inhibition at 400 µM: Human alphaherpesvirus 1, 400 μM test compound; for inhibition at 500 µM: Human alphaherpesvirus 1, 500 μM test compound
Experimental: The plaque reduction assay for herpes simplex type 1 was performed on GMK (Green Monkey Kidney) cells as described by Ejereito et al. J. Gen. Virol. 2 (1968) 357. Monolayers on 5 cm petri dishes were used and after virus adsorption the test compound was added in the medium.
The plaque reduction assay for herpes simplex type 1 was performed on GMK (Green Monkey Kidney) cells as described by Ejereito et al. J. Gen. Virol 2 (1968) 357. Monolayers on 5 cm petri dishes were used and after virus adsorption the test compound was added in the medium.
Inhibition of herpes simplex type 1 plaque on GMK monolayers

influenza Victoria = assay: Inhibition of influenza Victoria plaque on MDCK monolayers; format: cell-based, influenza virus
[5] = topical 2% solution, start of treatment 24 hours after infection
[6] = treated in 0.1% Tween 80-10% aqueous glycerol
[7] = topical 2% solution in isopropanol-glycerol-water twice daily for 3 days starting 4 hours after infection
[8] = treated in 0.1% Tween 80-10% aqueous glycerol, start of treatment 24 hours after infection
[9] = Day 1, 10 μmol intraperitoneally, urine of two NMRI male mice
[10] = Day 2, 10 μmol intraperitoneally, urine of two NMRI male mice
[11] = Day 3, 10 μmol intraperitoneally, urine of two NMRI male mice

O=C(Oc1ccccc1)P(=O)(O)Oc1ccccc1
number of animals dead 24 hours after injection ([1]; 62.5 mg/kg ip): 0/2
number of animals dead 24 hours after injection ([1]; 125 mg/kg ip): 0/2
number of animals dead 24 hours after injection ([1]; 250 mg/kg ip): 0/2
number of animals dead 24 hours after injection ([1]; 500 mg/kg ip): 0/2

O=C(O)P(=O)(O)O [EHB 776, trisodium phosphonoformate]
Estimated formation of phosphorous acid [2]: 20 µg

O=C(Oc1ccccc1)P(=O)(Oc1ccccc1)Oc1ccccc1 [VIS 040, Hydroxycarbonylphosphonic Acid Triphenyl Ester]
Score at day 5, treated [3, 5]: 0
Inhibition (%) ([4]; 100 μM test compound): 90%
Inhibition (%) ([4]; 500 μM test compound): > 99%

O=C(O)P(=O)(O)Oc1ccccc1 [VIS 041, Phenyl disodium oxycarbonylphosphonate]
Score at day 5, treated [3, 5]: 0
Inhibition (%) ([4]; 500 μM test compound): > 99.9%
Inhibition (%) (herpes simplex type 1; 10 μM test compound): ~ 50%
Inhibition (%) (herpes simplex type 1; 40 μM test compound): > 90%
Inhibition (%) (herpes simplex type 1; 100 μM test compound, 100 µM): > 99.9% and 99%
Inhibition (%) (herpes simplex type 1; 500 μM test compound): > 99.9%

O=C(Oc1ccccc1)P(=O)([O-])Oc1ccccc1.[Na+] [VIS 043, Sodium phenyl phenoxycarbonylphosphonate]
Score at day 5, treated [3, 5]: 0
Inhibition (%) ([4]; 20 μM test compound, 20 µM): 62% and 47%
Inhibition (%) ([4]; 100 μM test compound, 100 µM): 84% and 90% and > 99.9%
Inhibition (%) ([4]; 500 μM test compound): > 99.9%
Inhibition (%) (herpes simplex type 1; 20 μM test compound): ~ 0%
Inhibition (%) (herpes simplex type 1; 40 μM test compound): > 90.9%
Inhibition (%) (herpes simplex type 1; 100 μM test compound, 100 µM): > 99.9% and > 99%
Inhibition (%) (herpes simplex type 1; 500 μM test compound): > 99.9%

Cc1ccc(OP(=O)(Oc2ccc(C)cc2)C(=O)Oc2ccccc2)cc1 [VIS 056, Di-p-tolyl phenoxycarbonylphosphonate]
Inhibition (%) (herpes simplex type 1; 100 μM test compound): > 99%
Inhibition (%) (herpes simplex type 1; 500 μM test compound): > 99%
Inhibition (%) (influenza Victoria; 200 μM test compound): 75%

COc1ccc(OP(=O)([O-])C(=O)Oc2ccccc2)cc1.[Na+] [VIS 058, Sodium p-methoxyphenyl phenoxycarbonylphosphonate]
Inhibition (%) ([4]; 100 μM test compound): 84%
Inhibition (%) ([4]; 500 μM test compound): > 99.9%
Inhibition (%) (herpes simplex type 1; 10 μM test compound): ~ 50%
Inhibition (%) (herpes simplex type 1; 40 μM test compound): > 90%
Inhibition (%) (herpes simplex type 1; 100 μM test compound): 88%
Inhibition (%) (herpes simplex type 1; 500 μM test compound): > 99.9%

Cc1ccc(OP(=O)(O)C(=O)O)cc1 [VIS 059, p-tolyl disodium oxycarbonylphosphonate]
Score at day 5, treated [3, 6]: 1 and 2
Inhibition (%) ([4]; 20 μM test compound, 20 µM): 58% and 36%
Inhibition (%) ([4]; 500 μM test compound, 500 µM): > 99.9% and 91% and 92%
Inhibition (%) (herpes simplex type 1; 5 μM test compound, 5 µM): 57% and > 90%
Inhibition (%) (herpes simplex type 1; 20 μM test compound): 95%
Inhibition (%) (herpes simplex type 1; 100 μM test compound): > 99.9%
Inhibition (%) (herpes simplex type 1; 500 μM test compound): > 99.9%

O=C(Oc1ccccc1)P(=O)([O-])Oc1ccc(Cl)cc1.[Na+] [VIS 063, sodium p-chlorophenyl phenoxycarbonylphosphonate]
Score at day 5, treated [3, 7]: 2 and 3
Inhibition (%) ([4]; 100 μM test compound): 72%
Inhibition (%) ([4]; 500 μM test compound): > 99.9%
Inhibition (%) (herpes simplex type 1; 5 μM test compound): ~ 50%
Inhibition (%) (herpes simplex type 1; 10 μM test compound): > 90%
Inhibition (%) (herpes simplex type 1; 20 μM test compound): 69%
Inhibition (%) (herpes simplex type 1; 100 μM test compound): > 99.9%
Inhibition (%) (herpes simplex type 1; 500 μM test compound): > 99.9%

Cc1ccc(OP(=O)([O-])C(=O)Oc2ccccc2)cc1.[Na+] [VIS 065, sodium p-tolyl phenoxycarbonylphosphonate]
Inhibition (%) (herpes simplex type 1; 10 μM test compound): ~ 50%
Inhibition (%) (herpes simplex type 1; 20 μM test compound): > 90%
Inhibition (%) (influenza Victoria; 200 μM test compound): 76%
Inhibition (%) (influenza Victoria; 500 μM test compound): > 99%

O=C(O)P(=O)(O)Oc1ccc(Cl)cc1 [VIS 066, p-chlorophenyl disodium oxycarbonylphosphonate]
Inhibition (%) ([4]; 100 μM test compound): 54%
Inhibition (%) ([4]; 500 μM test compound): > 99.9%
Inhibition (%) (herpes simplex type 1; 5 μM test compound, 5 µM): 89% and ~ 75%
Inhibition (%) (herpes simplex type 1; 10 μM test compound): > 90%
Inhibition (%) (herpes simplex type 1; 20 μM test compound): 98%
Inhibition (%) (herpes simplex type 1; 100 μM test compound): > 99.9%
Inhibition (%) (herpes simplex type 1; 500 μM test compound): > 99.9%

COc1ccc(OP(=O)(O)C(=O)O)cc1 [VIS 067, p-Methoxyphenyl disodium oxycarbonylphosphonate]
Score at day 5, treated [3, 6]: 1
Inhibition (%) ([4]; 100 μM test compound): 58%
Inhibition (%) ([4]; 500 μM test compound, 500 µM): 73% and > 99.9%
Inhibition (%) (herpes simplex type 1; 5 μM test compound): 57%
Inhibition (%) (herpes simplex type 1; 20 μM test compound): 87%
Inhibition (%) (herpes simplex type 1; 100 μM test compound): 99%
Inhibition (%) (herpes simplex type 1; 500 μM test compound): > 99.9%

Cc1ccc(OC(=O)P(=O)([O-])[O-])cc1.[Na+].[Na+] [VIS 130, Disodium p-tolyloxycarbonylphosphonate]
Score at day 5, treated [3, 8]: 1
inhibition at 200 µM (herpes simplex type 1; Human alphaherpesvirus 1, 200 μM test compound): ~80%
inhibition at 400 µM (herpes simplex type 1): > 90%

O=C(Oc1ccc(Cl)c(Cl)c1)P(=O)(O)O [VIS 135, Disodium 3,4-dichlorophenoxycarbonylphosphonate]
inhibition at 100 µM (herpes simplex type 1; Human alphaherpesvirus 1, 100 μM test compound): 85%

O=C(Oc1ccc(Cl)cc1)P(=O)([O-])[O-].[Na+].[Na+] [VIS 238, Disodium p-chlorophenoxycarbonylphosphonate]
Score at day 5, treated [3, 8]: 1
Inhibition (%) (herpes simplex type 1; 100 μM test compound, 100 µM): 52% and ~ 90%
Inhibition (%) (herpes simplex type 1; 500 μM test compound, 500 µM): 99%
inhibition at 500 µM (herpes simplex type 1): 96%

COc1ccc(OC(=O)P(=O)([O-])[O-])cc1.[Na+].[Na+] [VIS 239, Disodium p-methoxyphenoxycarbonylphosphonate]
Score at day 5, treated [3, 8]: 1
Inhibition (%) (herpes simplex type 1; 500 μM test compound, 500 µM): 36% and 52% and 70%
inhibition at 400 µM (herpes simplex type 1): ~60%
inhibition at 600 µM (herpes simplex type 1; Human alphaherpesvirus 1, 600 μM test compound): > 90%

CCOC(=O)c1ccc(OC(=O)P(=O)([O-])[O-])cc1.[Na+].[Na+] [VIS 242, Disodium p-(ethoxycarbonyl)phenoxycarbonylphosphonate]
Score at day 5, treated [3, 8]: 1

O=C(Oc1ccccc1)P(=O)([O-])[O-].[Na+].[Na+] [VIS 412, Disodium phenoxycarbonylphosphonate]
Score at day 5, treated [3, 7]: 0
Score at day 5, treated [3, 5]: 0
Inhibition (%) (herpes simplex type 1; 500 μM test compound, 500 µM): 88%
inhibition at 60 µM (herpes simplex type 1; Human alphaherpesvirus 1, 60 μM test compound): ~50%
inhibition at 500 µM (herpes simplex type 1): 80%

O=C(O)P(=O)(O)Oc1ccc2c(c1)CCC2 [VIS 442, 5-Indanyl disodium oxycarbonylphosphonate]
Score at day 5, treated [3, 8]: 1
Inhibition (%) ([4]; 500 μM test compound): 94%
Inhibition (%) (herpes simplex type 1; 10 μM test compound): > 90%
Inhibition (%) (herpes simplex type 1; 500 μM test compound): > 99.9%

Cc1ccc(OC(=O)P(=O)(O)O)cc1 [drawing 119]
Recovered phosphonoformic acid activity in urine [9]: 1.25 μmol phosphonoformic acid
Recovered phosphonoformic acid activity in urine [10]: 0.25 μmol phosphonoformic acid
Recovered phosphonoformic acid activity in urine [11]: 0.10 μmol phosphonoformic acid

O=C(O)P(=O)(O)Oc1ccccc1 [drawing 120]
Recovered phosphonoformic acid activity in urine [9]: 1.00 μmol phosphonoformic acid
Recovered phosphonoformic acid activity in urine [10]: 0.25 μmol phosphonoformic acid
Recovered phosphonoformic acid activity in urine [11]: 0.25 μmol phosphonoformic acid

O=C(O)P(=O)(O)O [drawing 121, reference compound]
Recovered phosphonoformic acid activity in urine (mouse, in vivo, ip): 1.25 μmol phosphonoformic acid

O=C(Oc1ccccc1)P(=O)(O)O [drawing 123]
number of animals dead 24 hours after injection ([1]; 62.5 mg/kg ip): 0/2
number of animals dead 24 hours after injection ([1]; 125 mg/kg ip): 0/2
number of animals dead 24 hours after injection ([1]; 250 mg/kg ip): 0/2
number of animals dead 24 hours after injection ([1]; 500 mg/kg ip): 0/2

O=C(O)P(=O)(O)Oc1ccccc1 [drawing 125]
number of animals dead 24 hours after injection ([1]; 62.5 mg/kg ip): 0/2
number of animals dead 24 hours after injection ([1]; 125 mg/kg ip): 0/2
number of animals dead 24 hours after injection ([1]; 250 mg/kg ip): 0/2
number of animals dead 24 hours after injection ([1]; 500 mg/kg ip): 0/2
